Results: ChEMBL document CHEMBL4229379, “Synthesis and structure-activity relationship of novel bisindole amidines active against MDR Gram-positive and Gram-negative bacteria” (Eur J Med Chem, 2018)
In brackets after ≈: the same amount, converted by molar mass.

Assays:
Assay type in all cases: functional
[1] = tested on: Staphylococcus epidermidis; experiment: Antibacterial activity against methicillin-sensitive Staphylococcus epidermidis ATCC 12228 after 18 hrs by CLSI broth microdilution method; conditions: ATCC 12228, 18 h
[2] = tested on: Staphylococcus epidermidis; experiment: Antibacterial activity against methicillin-resistant Staphylococcus epidermidis 12-8 after 18 hrs by CLSI broth microdilution method; conditions: 12-8, 18 h
[3] = tested on: Staphylococcus aureus; experiment: Antibacterial activity against methicillin-sensitive Staphylococcus aureus ATCC 29213 after 18 hrs by CLSI broth microdilution method; conditions: ATCC 29213, 18 h
[4] = tested on: Staphylococcus aureus; experiment: Antibacterial activity against methicillin-resistant Staphylococcus aureus 12-33 after 18 hrs by CLSI broth microdilution method; conditions: 12-33, 18 h
[5] = tested on: Enterococcus faecalis; experiment: Antibacterial activity against vancomycin-sensitive Enterococcus faecalis ATCC 29212 after 18 hrs by CLSI broth microdilution method; conditions: ATCC 29212, 18 h
[6] = tested on: Enterococcus faecalis; experiment: Antibacterial activity against vancomycin-resistant Enterococcus faecalis 09-9 after 18 hrs by CLSI broth microdilution method; conditions: 09-9, 18 h
[7] = tested on: Enterococcus faecium; experiment: Antibacterial activity against vancomycin-resistant Enterococcus faecium ATCC 700221 after 18 hrs by CLSI broth microdilution method; conditions: ATCC 700221, 18 h
[8] = tested on: Enterococcus faecium; experiment: Antibacterial activity against vancomycin-sensitive Enterococcus faecium 12-3 after 18 hrs by CLSI broth microdilution method; conditions: 12-3, 18 h
[9] = tested on: Escherichia coli; experiment: Antibacterial activity against extended-spectrum beta-lactamase deficient Escherichia coli ATCC 25922 after 18 hrs by CLSI broth microdilution method; conditions: ATCC 25922, 18 h
[10] = tested on: Escherichia coli; experiment: Antibacterial activity against extended-spectrum beta-lactamase harboring Escherichia coli 12-15 after 18 hrs by CLSI broth microdilution method; conditions: 12-15, 18 h
[11] = tested on: Klebsiella pneumoniae; experiment: Antibacterial activity against new delhi metallo-beta-lactamase-1 harboring Klebsiella pneumoniae ATCC BAA-2146 after 18 hrs by CLSI broth microdilution method; conditions: ATCC BAA-2146, 18 h
[12] = tested on: Klebsiella pneumoniae; experiment: Antibacterial activity against extended-spectrum beta-lactamase harboring Klebsiella pneumoniae 12-8 after 18 hrs by CLSI broth microdilution method; conditions: 12-8, 18 h
[13] = tested on: Pseudomonas aeruginosa; experiment: Antibacterial activity against Pseudomonas aeruginosa ATCC 27853 after 18 hrs by CLSI broth microdilution method; conditions: ATCC 27853, 18 h
[14] = tested on: Acinetobacter calcoaceticus; experiment: Antibacterial activity against Acinetobacter calcoaceticus ATCC 19606 after 18 hrs by CLSI broth microdilution method; conditions: ATCC 19606, 18 h
[15] = tested on: Enterobacter cloacae; experiment: Antibacterial activity against Enterobacter cloacae ATCC 43560 after 18 hrs by CLSI broth microdilution method; conditions: ATCC 43560, 18 h
[16] = tested on: Proteus mirabilis; experiment: Antibacterial activity against Proteus mirabilis 12-6 after 18 hrs by CLSI broth microdilution method; conditions: 12-6, 18 h
[17] = tested on: Escherichia coli; experiment: Antibacterial activity against extended-spectrum beta-lactamase harboring Escherichia coli 13-1 after 18 hrs by CLSI broth microdilution method; conditions: 13-1, 18 h
[18] = tested on: Escherichia coli; experiment: Antibacterial activity against extended-spectrum beta-lactamase harboring Escherichia coli CDC1001728 after 18 hrs by CLSI broth microdilution method; conditions: CDC1001728, 18 h
[19] = tested on: Klebsiella pneumoniae; experiment: Antibacterial activity against carbapenem-resistant Klebsiella pneumoniae 12-11 after 18 hrs by CLSI broth microdilution method; conditions: 12-11, 18 h
[20] = tested on: Klebsiella pneumoniae; experiment: Antibacterial activity against carbapenem-resistant Klebsiella pneumoniae 12-12 after 18 hrs by CLSI broth microdilution method; conditions: 12-12, 18 h
[21] = tested on: Acinetobacter calcoaceticus; experiment: Antibacterial activity against new delhi metallo-beta-lactamase-1 harboring Acinetobacter calcoaceticus 13-1 after 18 hrs by CLSI broth microdilution method; conditions: 13-1, 18 h
[22] = tested on: Acinetobacter calcoaceticus; experiment: Antibacterial activity against carbapenem-resistant Acinetobacter calcoaceticus 12-6 after 18 hrs by CLSI broth microdilution method; conditions: 12-6, 18 h
[23] = tested on: Klebsiella aerogenes; experiment: Antibacterial activity against carbapenem-resistant Enterobacter aerogenes 11-4 after 18 hrs by CLSI broth microdilution method; conditions: 11-4, 18 h
[24] = tested on: Enterobacter cloacae; experiment: Antibacterial activity against new delhi metallo-beta-lactamase-1 harboring Enterobacter cloacae CDC1000654 after 18 hrs by CLSI broth microdilution method; conditions: CDC1000654, 18 h
[25] = tested on: Enterobacter cloacae; experiment: Antibacterial activity against new delhi metallo-beta-lactamase-1 harboring Enterobacter cloacae 13-1 after 18 hrs by CLSI broth microdilution method; conditions: 13-1, 18 h
[26] = tested on: Staphylococcus epidermidis; experiment: Antibacterial activity against methicillin-sensitive Staphylococcus epidermidis 12-6 after 18 hrs by CLSI broth microdilution method; conditions: 12-6, 18 h
[27] = tested on: Staphylococcus aureus; experiment: Antibacterial activity against methicillin-resistant Staphylococcus aureus ATCC 33591 after 18 hrs by CLSI broth microdilution method; conditions: ATCC 33591, 18 h
[28] = tested on: Staphylococcus aureus; experiment: Antibacterial activity against methicillin-sensitive Staphylococcus aureus 15 after 18 hrs by CLSI broth microdilution method; conditions: Staphylococcus aureus, 15, 18 h
[29] = tested on: Staphylococcus aureus; experiment: Antibacterial activity against methicillin-sensitive Staphylococcus aureus 12-28 after 18 hrs by CLSI broth microdilution method; conditions: 12-28, 18 h
[30] = tested on: Enterococcus faecalis; experiment: Antibacterial activity against vancomycin-resistant Enterococcus faecalis ATCC 51299 after 18 hrs by CLSI broth microdilution method; conditions: ATCC 51299, 18 h
[31] = tested on: Enterococcus faecalis; experiment: Antibacterial activity against vancomycin-sensitive Enterococcus faecalis 12-5 after 18 hrs by CLSI broth microdilution method; conditions: 12-5, 18 h
[32] = tested on: Enterococcus faecium; experiment: Antibacterial activity against vancomycin-resistant Enterococcus faecium 12-1 after 18 hrs by CLSI broth microdilution method; conditions: 12-1, 18 h
[33] = tested on: Escherichia coli; experiment: Antibacterial activity against extended-spectrum beta-lactamase deficient Escherichia coli 1515 after 18 hrs by CLSI broth microdilution method; conditions: Escherichia coli, 1515, 18 h
[34] = tested on: Klebsiella pneumoniae; experiment: Antibacterial activity against extended-spectrum beta-lactamase deficient Klebsiella pneumoniae 7 after 18 hrs by CLSI broth microdilution method; conditions: Klebsiella pneumoniae, 7, 18 h
[35] = tested on: Klebsiella pneumoniae; experiment: Antibacterial activity against extended-spectrum beta-lactamase deficient Klebsiella pneumoniae 12-4 after 18 hrs by CLSI broth microdilution method; conditions: 12-4, 18 h
[36] = tested on: Pseudomonas aeruginosa; experiment: Antibacterial activity against Pseudomonas aeruginosa 12-16 after 18 hrs by CLSI broth microdilution method; conditions: 12-16, 18 h
[37] = tested on: Klebsiella aerogenes; experiment: Antibacterial activity against Enterobacter aerogenes ATCC 13048 after 18 hrs by CLSI broth microdilution method; conditions: ATCC 13048, 18 h
[38] = tested on: Serratia marcescens; experiment: Antibacterial activity against Serratia marcescens ATCC 21074 after 18 hrs by CLSI broth microdilution method; conditions: ATCC 21074, 18 h
[39] = tested on: Providencia rettgeri; experiment: Antibacterial activity against Providencia rettgeri ATCC 31052 after 18 hrs by CLSI broth microdilution method; conditions: ATCC 31052, 18 h
[40] = tested on: Proteus vulgaris; experiment: Antibacterial activity against Proteus vulgaris ATCC 29905 after 18 hrs by CLSI broth microdilution method; conditions: ATCC 29905, 18 h
[41] = tested on: Stenotrophomonas maltophilia; experiment: Antibacterial activity against Stenotrophomonas maltophilia ATCC 13636 after 18 hrs by CLSI broth microdilution method; conditions: ATCC 13636, 18 h
[42] = tested on: Citrobacter freundii; experiment: Antibacterial activity against Citrobacter freundii ATCC 43864 after 18 hrs by CLSI broth microdilution method; conditions: ATCC 43864, 18 h
[43] = tested on: Klebsiella pneumoniae; experiment: Antibacterial activity against new delhi metallo-beta-lactamase-1 harboring Klebsiella pneumoniae 13-1 after 18 hrs by CLSI broth microdilution method; conditions: 13-1, 18 h

**Q.** Which MIC [1] does the source give for `C[C@H]1COc2c(N3CCN(C)CC3)c(F)cc3c(=O)c(C(=O)O)cn1c23.C[C@H]1COc2c(N3CCN(C)CC3)c(F)cc3c(=O)c(C(=O)O)cn1c23.O` [LEVOFLOXACIN] here?
**A.** Its MIC is 0.125 µg/mL.

**Q.** What about the MIC [2] of the same molecule?
**A.** The MIC was 4 µg/mL.

**Q.** And the MIC [3]?
**A.** Its MIC is 0.125 µg/mL.

**Q.** And the MIC [4]?
**A.** The MIC was 32 µg/mL.

**Q.** What about the MIC [5] of the same molecule?
**A.** Its MIC is 0.5 µg/mL.

**Q.** What about the MIC [6] of the same molecule?
**A.** Its MIC is > 128 µg/mL.

**Q.** And the MIC [7]?
**A.** Its MIC is 64 µg/mL.

**Q.** And the MIC [8]?
**A.** The MIC was 32 µg/mL.

**Q.** What about the MIC [9] of the same molecule?
**A.** The MIC was ≤ 0.03 µg/mL.

**Q.** What about the MIC [10] of the same molecule?
**A.** The MIC was 16 µg/mL.

**Q.** What about the MIC [11] of the same molecule?
**A.** The MIC was > 128 µg/mL.

**Q.** What about the MIC [12] of the same molecule?
**A.** The MIC was 8 µg/mL.

**Q.** And the MIC [13]?
**A.** The MIC was 0.5 µg/mL.

**Q.** And the MIC [14]?
**A.** Its MIC is 0.5 µg/mL.

**Q.** And the MIC [15]?
**A.** The MIC was ≤ 0.03 µg/mL.

**Q.** What about the MIC [16] of the same molecule?
**A.** Its MIC is 4 µg/mL.

**Q.** What about the MIC [17] of the same molecule?
**A.** The MIC was 64 µg/mL.

**Q.** What about the MIC [18] of the same molecule?
**A.** Its MIC is 16 µg/mL.

**Q.** And the MIC [19]?
**A.** The MIC was 16 µg/mL.

**Q.** What about the MIC [20] of the same molecule?
**A.** The MIC was 8 µg/mL.

**Q.** And the MIC [21]?
**A.** The MIC was 2 µg/mL.

**Q.** And the MIC [22]?
**A.** The MIC was 8 µg/mL.

**Q.** What about the MIC [23] of the same molecule?
**A.** Its MIC is 16 µg/mL.

**Q.** What about the MIC [24] of the same molecule?
**A.** The MIC was 32 µg/mL.

**Q.** And the MIC [25]?
**A.** The MIC was 128 µg/mL.

**Q.** And the MIC [26]?
**A.** Its MIC is 0.5 µg/mL.

**Q.** And the MIC [27]?
**A.** The MIC was 0.125 µg/mL.

**Q.** And the MIC [28]?
**A.** The MIC was 0.125 µg/mL.

**Q.** What about the MIC [29] of the same molecule?
**A.** Its MIC is 0.125 µg/mL.

**Q.** And the MIC [30]?
**A.** The MIC was 0.5 µg/mL.

**Q.** What about the MIC [31] of the same molecule?
**A.** Its MIC is 1 µg/mL.

**Q.** And the MIC [32]?
**A.** Its MIC is 32 µg/mL.

**Q.** And the MIC [33]?
**A.** The MIC was ≤ 0.03 µg/mL.

**Q.** What about the MIC [34] of the same molecule?
**A.** Its MIC is ≤ 0.03 µg/mL.

**Q.** What about the MIC [35] of the same molecule?
**A.** The MIC was ≤ 0.03 µg/mL.

**Q.** And the MIC [36]?
**A.** The MIC was 8 µg/mL.

**Q.** And the MIC [37]?
**A.** Its MIC is ≤ 0.03 µg/mL.

**Q.** And the MIC [38]?
**A.** Its MIC is 0.06 µg/mL.

**Q.** And the MIC [39]?
**A.** The MIC was ≤ 0.03 µg/mL.

**Q.** And the MIC [40]?
**A.** Its MIC is 0.125 µg/mL.

**Q.** And the MIC [41]?
**A.** Its MIC is 0.25 µg/mL.

**Q.** What about the MIC [42] of the same molecule?
**A.** The MIC was ≤ 0.03 µg/mL.

**Q.** Which results are given for `CN(C)c1cc(NC(=O)CNC(C)(C)C)c(O)c2c1C[C@H]1C[C@H]3[C@H](N(C)C)C(O)=C(C(N)=O)C(=O)[C@@]3(O)C(O)=C1C2=O` [TIGECYCLINE]?
**A.** MIC [11]: 8 µg/mL (≈ 13.7 µM); MIC [17]: 0.25 µg/mL (≈ 0.427 µM); MIC [18]: 0.5 µg/mL (≈ 0.854 µM); MIC [43]: 0.5 µg/mL (≈ 0.854 µM); MIC [19]: 1 µg/mL (≈ 1.71 µM); MIC [20]: 1 µg/mL (≈ 1.71 µM); MIC [21]: 0.5 µg/mL (≈ 0.854 µM); MIC [22]: 1 µg/mL (≈ 1.71 µM); MIC [23]: 1 µg/mL (≈ 1.71 µM); MIC [24]: 8 µg/mL (≈ 13.7 µM); MIC [25]: 1 µg/mL (≈ 1.71 µM)
